The source of these data is patent US20230126411A1, “DEUTERIUM MAGNETIC RESONANCE IMAGING” (University of Florida Research Foundation, Inc., priority 2020, published 2023).

In data set [1] the test system is rat brain. Nature of the data set: Deuterium MR spectroscopy of rat brain and plasma 2H NMR after tail vein infusion of [2H7]glucose. From the text: All experimental procedures were approved by the University of Florida Institutional Animal Care and Use Committee. Female Sprague Dawley rats (body weight: ˜220 g) were purchased from Jackson Laboratories and acclimatized in the University's animal care facilities. All rats were in the fed state. The rat was anesthetized with 2% isoflurane in a mixture of O2 and N2 gases. The tail vein was catheterized using a 23-gauge needle for the infusion of [^2H7]glucose tracer. The body temperature of the rat was maintained at 37° C. using a heated circulating water pad. The respiratory rate was monitored during the entire period of the experiment. After shimming the magnet, three baseline ^2H spectra were acquired. Subsequently, a 2 minute tail vain infusion of [^2H7]glucose (1.95 g/kg body weight and dissolved in 2.3 mL saline) was administered. Blood was drawn after the end of spectroscopy and imaging experiments via saphenous vein and blood plasma was separated by centrifugation of the blood at 4° C. for 10 minutes. Circulating blood glucose was assessed by a blood draw and glucometer (Evancare, Medline Industries, Northfield, IL) prior to infusion and 3 hours after the glucose injection.
Animal experiments were performed on an 11.1 T Magnex magnet (Magnex Scientific Ltd.) interfaced to a BrukerAvance Ill HD console running on ParaVision 6.0.1 (Bruker Instruments, Billerica, Mass.). The MRI system was equipped with RRI BFG-240/120-S6 gradient coil with the bore size of 120 mm and capable of producing 100 mT/m with 200 μs rise time. A shim map was generated for localized shimming on rat brain using an 85 mm home-built, actively-decoupled, linear volume ^1H transmit-receive coil. The coil was tuned to the ^1H NMR frequency at 470 MHz. A home-built 14 mm diameter, circular surface coil tuned to 72.26 MHz was used to acquire ^2H spectra and images.
The ^2H coil was placed over the rat head and a 3D printed phantom containing approximately 200 μl of natural abundance water was placed on the top of the coil to confirm positioning. The ^2H RF pulse and flip angle were optimized to maximize the ^2H signals from the rat brain. A partial signal contribution from the natural abundance ^2H of the water phantom was unavoidable but was accounted for by subtraction of the signal areas from runs that followed the glucose injection. […] Spectra were acquired with a 1 kHz width and 256 data points for each free induction decay (FID), a repetition time of 300 ms, and a flip angle of 60° with 256 averages. The total acquisition time for each spectrum was 1.28 minutes. A total of 30 spectra were acquired for a 38-minute time period. Two additional ^2H NMR spectra from the rat brain were acquired at 2 hours and 2.5 hours following [^2H7]glucose infusion. Pyrazine-D4 (2.5 mM, internal standard) was added in each plasma sample to calculate the HDO concentration in plasma. ^2H NMR spectra were collected on Bruker 14 T NMR magnet system equipped with a 1.7 mm TCl CryoProbe and Avance Neo console (Bruker BioSpin). ^2H NMR spectra of plasma samples were acquired at 92.13 MHz resonant frequency with an acquisition time of 1.0 s, relaxation delay of 2 s, and 3072 scans.
^2H NMR data analysis was performed using MestReNova v14.0.1-23284 (Mestrelab Research S. L., Santiago, Spain). For processing of the ^2H NMR, each spectrum was Fourier transformed with an exponential window function of 2.0 Hz, zero-filling of 512 data points and automatic phase correction was also applied. Peak areas were extracted for HDO, [^2H7]glucose including the anomeric signal, deuterated glx (glutamate/glutamine) and lactate from the ^2H NMR spectra of the rat brain. 2D ^1H and ^2H images were processed in the ImageJ software (NIH, Bethesda, Md.).

Data set [2] is described as follows: T1 inversion recovery NMR of lactate isotopomers, HDO and standards in cell media. To be noted: 25° C., cell medium; for deuterium T1 relaxation time: 2H-NMR 92.13 MHz; for proton T1 relaxation time: 1H-NMR 600.23 MHz, 2H-decoupling on. Type of data set: physicochemical. The procedure: (§1) All NMR spectra were recorded on a 600.23 MHz NMR, equipped with a 1.7 mm TCI CryoProbe and Avance Neo Console (Bruker Biospin). All NMR experiments were set up in the lock off followed by sweep off mode. ^2H-decoupling off and on ^1H-NMR spectra were acquired with a sequence that alternated decoupling with each scan. Relaxation delay (d1) of 1.5s and acquisition time (AQ) of 2s (3.5s of recycling time, Tr) and a 90° pulse of 10.50 μs was used for acquisition of each of the spectra. The WET method containing selective pulses was applied on the strong water resonance (M o, H. & Raftery, D. J. Biomol. NMR 2008 41:105-111). Waltz16 ^2H-decoupling sequence consists of 90° pulse of 250 μs with decoupling power of 1.72watts, producing B, of 1 kHz during the acquisition period. 13,157 complex data points were acquired with the spectral width of 11 ppm. 128 scans were used to acquire each spectrum. 4 dummy scans were also used for equilibration of the spin states prior to acquisition. A modified T1 inversion recovery pulse sequence with ^2H-decoupling on during the acquisition was used to measure the T1 of the lactate isotopomers and pyrazine standard. Relaxation delay (d1) of 50s and inversion recovery delays (T) of 0.001, 0.6, 0.9, 1.5, 2.0, 3.0, 6.0, 9.0, 14.0, 20.0, 30.0 and 40.0s were used to determine the T1 of lactate isotopomers.
(§2) The deuterium lock channel was used to acquire the ^1H-decoupled ^2H-NMR spectrum at 92.13 MHz resonant frequency. Relaxation delay (d1) of 2s and acquisition time (AQ) of 1s (3s of recycling time, Tr) with a 90° pulse was used to acquire each of the ^2H-NMR spectra. 1086 complex data points were digitized with the spectral width of 11 ppm using 1024 scans for each of the 5 FIDs (5120 scans) for each of the samples. T1 inversion recovery pulse sequence was used to calculate the T1 relaxation times of HDO and pyrazine-D4 standard. Relaxation delay (d1) of 5s, acquisition time (AQ) of 1s and inversion recovery delays (T) of 0.001, 0.1, 0.4, 0.8, 1.6, and 3.2s were used to acquire an array of FIDs to calculate the T1 of HDO and pyrazine-D4. All NMR experiments were carried out at the room temperature (25° C.). ^1H-NMR Data Processing and Quantification of Lactate Isotopomers
Once the lactate isotopomers were identified, it would be expected to observe differential changes in T1 due to a loss of ^1H dipolar relaxation. T1 inversion recovery experiments were performed in the ^2H-decoupling on mode to calculate the T1 relaxation time of the pyrazine and lactate isotopomers. […] A and B marks on the uppermost spectrum represent the pyrazine standard and methyl signals of the lactate isotopomers respectively. Integral areas of each of the lactate isotopomers and pyrazine standard were extracted to calculate the T1 relaxation times. Data was fit to the standard T1 equation, Mz(t)=M0(1-2*^T/T1), to extract the T1s. […] T1 relaxation time of the HDO and pyrazine-D4 standard were calculated using the inversion recovery ^2H-NMR data (FIG. 10) and found to be 0.49s and 0.45s respectively.

Data set [3] deals with HUH-7 hepatocellular carcinoma cells. Kind of data set: [2H7]glucose consumption, lactate isotopomer and HDO production in cell media by 1H/2H-NMR. The class given is cell-based. Particulars: for concentration of consumed [2H7]glucose / produced lactate isotopomers and HDO in cell media: 5.5 mM [2H7]glucose; for number of μmol of 2H: 2H mass balance; for rate of production of lactate isotopomer: efflux into medium, linear regression over incubation time. The procedure: (§3) HUH-7 or AML12 cell lines were cultured in a complete growth medium made up of Dulbecco's Modified Eagle Medium (DMEM) with 10% v/v FBS, 10,000 units/mL penicillin, 10,000 μg/mL streptomycin, 25 μg/mL amphotericin B and 5.5 mM [^2H7]glucose. Cell lines were maintained at 37° C. in a 5% CO2 in air atmosphere in an air-jacketed incubator (Heracell Vios 160i, Thermo Scientific, Waltham, Mass.). Growth media was replaced every 3 days, and subcultured 1:5 at 80% confluence. 25 cm^2 cell culture plates, containing 15 million HUH-7 or AML12 cells at 70-80% confluence, were washed once with warm PBS and incubated with 4 mL each of DMEM with deuterated tracer for 5h, withdrawing 100 μL aliquots at 20 min, 1h, 2h, and 5h.
(§4) No extraction was performed on the cell media samples. Pyrazine and pyrazine-D4 were mixed to achieve 5 mM concentration of each of the standards in each cell media samples of HUH-7 and AML12 cells. Pyrazine and pyrazine-D4 served as an internal standard to quantify the lactate isotopomers from ^1H-NMR data and HDO as well as residual [^2H7]glucose from ^2H-NMR data respectively. 40 μL of cell medium was transferred into 1.7 mm NMR tubes for NMR analysis. ^1H-NMR Spectroscopy
as §1, §2
(§5) For processing of the ^1H-NMR spectrum, the spectra were zero-filled to 32,768 points with an exponential window function of 0.3 Hz before the Fourier Transform (FT). Manual phase and automatic spline baseline correction were performed on each of the spectra. ^2H-decoupled ^1H-NMR spectra of each time point were used for the extraction of the areas of lactate isotopomers. The MestReNova line fitting tool was used to extract the peak areas of the slightly overlapped signals for quantification of the lactate isotopomers. […]

The subject of data set [4] is AML12 cells. The description is as above. The class given is cell-based. Particulars: for concentration of consumed [2H7]glucose / produced lactate isotopomers and HDO in cell media: 5.5 mM [2H7]glucose; for number of μmol of 2H: 2H mass balance. The procedure: as §3, §4, §1, §2, §5

As to `[2H]O` [HDO, hydrogen-deuterium oxide], the “final body water HDO enrichment” value in data set [1] (rat blood plasma at end of experiment, n=4) came to 86.9 ± 5.16 mM. In addition, in data set [1] (rat brain, longer time points (2.5 hrs) post-[2H7]glucose infusion, N=3), the “final estimated HDO concentration in brain” value is “approximately 48±10 mM”. Also, the “final HDO signal relative to natural abundance signal” value in data set [1] (rat brain, longer time points post-infusion) is listed as “approximately 3.5 ×”. In data set [1] (rat brain, post-[2H7]glucose infusion), the “time range of pseudo-steady state of HDO (and HDO plus lactate) to glx ratios” value lay in the range of 10 to 24 min. Moreover, the “body water enrichment of HDO relative to brain concentration” value in data set [1] (rat, final time point) is given as “approximately 1.8 ×”. In data set [2], the “deuterium T1 relaxation time” value turned out to be 0.49 s. The figures for the “concentration of consumed [2H7]glucose / produced lactate isotopomers and HDO in cell media” value in data set [3] (5 hour time point) and in data set [4] (5 hour time point) were 18240.0 µmol/L and 2003.12 µmol/L, respectively. Moreover, the “number of μmol of 2H” value in data set [3] (5 hour time point) came out at 18240.0 µmol; in data set [4] (5 hour time point) it was 2003.12 µmol.
Take `[2H]CC(O)C(=O)O` (stereo not drawn) [Lactate-CH2D]: the “proton T1 relaxation time” value in data set [2] worked out at 2.49 s. In data set [3] (5 hour time point), the “concentration of consumed [2H7]glucose / produced lactate isotopomers and HDO in cell media” value is 1520.0 µmol/L; the “number of μmol of 2H” value worked out at 1520.0 µmol. Besides, the “rate of production of lactate isotopomer” value in data set [3] was determined as 0.35 micromol/10^6 cells/min. Besides, in data set [4] (5 hour time point), the “concentration of consumed [2H7]glucose / produced lactate isotopomers and HDO in cell media” value came to 229.26 µmol/L; the “number of μmol of 2H” value amounted to 229.26 µmol.
Take `[2H]C([2H])C(O)C(=O)O` (stereo not drawn) [Lactate-CHD2]: the “proton T1 relaxation time” value in data set [2] is 4.21 s. In data set [3] (5 hour time point), the “concentration of consumed [2H7]glucose / produced lactate isotopomers and HDO in cell media” value amounted to 2442.47 µmol/L; the “concentration of lactate-CHD2 relative to the -CH2D isotopomer” value was found to be 1.6 fold; the “number of μmol of 2H” value is 4884.9 µmol. The “rate of production of lactate isotopomer” value in data set [3] is 0.57 micromol/10^6 cells/min. In data set [4] (5 hour time point), the “concentration of consumed [2H7]glucose / produced lactate isotopomers and HDO in cell media” value was found to be 353.07 µmol/L; the “number of μmol of 2H” value stood at 706.14 µmol.
On to `CC(O)C(=O)O` (stereo not drawn) [lactate-CH3], for which, in data set [2], the “proton T1 relaxation time” value stood at 1.85 s. The “rate of production of lactate isotopomer” value in data set [3] is reported as 0.17 micromol/10^6 cells/min.
Turning to `c1cnccn1` [pyrazine, Pyrazine, reference compound], the “proton T1 relaxation time” value in data set [2] amounted to 6.45 s.
For the compound `[2H]c1nc([2H])c([2H])nc1[2H]` [pyrazine-D4, Pyrazine-D4, reference compound], the “deuterium T1 relaxation time” value in data set [2] is 0.45 s.
Turning to “[1,2,3,4,5,6,6-^2H7]-D-glucose [[^2H7]glucose, reference compound]”, the “fate of the glucose bolus in brain” value in data set [1] (rat, in vivo) was “almost completely metabolized”. Moreover, the “time of peak delivery of [2H7]glucose into the brain” value in data set [1] (rat, in vivo) was “approximately 10 minutes post infusion”. Moreover, the “final blood glucose concentration” value in data set [1] (rat, 3 hours after injection of 1.95 g/kg [2H7]glucose, n=4) is 7.1 ± 1.8 mM. In addition, the “concentration of consumed [2H7]glucose / produced lactate isotopomers and HDO in cell media” value is 3650.0 µmol/L in data set [3] (5 hour time point) and 586.52 µmol/L in data set [4] (5 hour time point). Besides, the “2H atoms of [2H7]glucose incorporated into 2H-lactate and HDO” value in data set [3] (2H mass balance at 5 hour time point) is “Approximately 96%”. Also, the results for the “number of μmol of 2H” value in data set [3] (5 hour time point) and in data set [4] (5 hour time point) were 25550.0 µmol and 4105.60 µmol, respectively. The “Number of μmol of 2H in 2H-lactate & HDO” value amounted to 24644.9 µmol in data set [3] (5 hour time point, sum) and 2938.52 µmol in data set [4] (5 hour time point, sum). Further, the “cellular [2H7]glucose uptake and HDO production rate compared to AML12 cells” value in data set [3] (qualitative, stacked 2H-NMR spectra) was “very high”. The “[2H7]glucose uptake and HDO and 2H-lactate production compared to HUH-7” value in data set [4] (qualitative) is reported as “much lower”.
